Measurements as given in BindingDB's records for PubMed 34699207 (National Institute On Drug Abuse?Intramural Research Program, 2021).

Key:
D(2) dopamine receptor = D(2) dopamine receptor (Homo sapiens, UniProt P14416); assay: Displacement of [3H]-(R)-(+)7-OH-DPAT from human dopamine D2 receptor expressed in HEK293 cell membranes incubated for 90 mins by microbeta scintillation counting analysis
D(3) dopamine receptor = D(3) dopamine receptor (Homo sapiens, UniProt P35462); assay: Displacement of [3H]-(R)-(+)7-OH-DPAT from human dopamine D3 receptor expressed in HEK293 cell membranes incubated for 90 mins by microbeta scintillation counting analysis
Chain of D(3) dopamine receptor (P35462 whole entry): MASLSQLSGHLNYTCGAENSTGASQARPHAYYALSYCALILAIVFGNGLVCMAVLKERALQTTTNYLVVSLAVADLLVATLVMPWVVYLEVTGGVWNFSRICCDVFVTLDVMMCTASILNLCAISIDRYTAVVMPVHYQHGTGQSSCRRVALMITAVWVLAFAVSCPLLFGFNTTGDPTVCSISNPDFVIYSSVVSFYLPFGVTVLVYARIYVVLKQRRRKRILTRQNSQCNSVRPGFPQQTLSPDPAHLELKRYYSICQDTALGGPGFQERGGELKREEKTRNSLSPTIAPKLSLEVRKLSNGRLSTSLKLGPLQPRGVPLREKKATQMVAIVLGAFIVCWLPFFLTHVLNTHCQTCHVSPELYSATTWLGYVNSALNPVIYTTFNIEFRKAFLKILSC

Chain of D(2) dopamine receptor (P14416 whole entry): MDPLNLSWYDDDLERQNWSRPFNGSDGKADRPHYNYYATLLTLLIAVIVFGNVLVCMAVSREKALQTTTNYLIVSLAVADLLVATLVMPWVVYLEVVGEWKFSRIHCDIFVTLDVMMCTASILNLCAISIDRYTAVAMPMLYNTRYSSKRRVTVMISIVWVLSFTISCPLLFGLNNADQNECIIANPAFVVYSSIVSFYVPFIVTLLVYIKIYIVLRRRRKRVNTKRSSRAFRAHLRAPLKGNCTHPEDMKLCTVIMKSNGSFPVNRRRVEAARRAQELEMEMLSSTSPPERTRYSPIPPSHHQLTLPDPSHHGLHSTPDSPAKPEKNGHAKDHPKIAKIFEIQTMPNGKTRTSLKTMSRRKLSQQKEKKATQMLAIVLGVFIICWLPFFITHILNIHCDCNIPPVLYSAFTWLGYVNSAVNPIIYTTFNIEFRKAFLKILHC

Row | Ki (D(2) dopamine receptor) | Ki (D(3) dopamine receptor) | SMILES
1 | 2 nM | 20 nM | CN(CC[C@@H]1CC[C@H](CNC(=O)c2cc3ccccc3[nH]2)C1)[C@@H]1Cc2cccc3[nH]c(=O)n(c23)C1
2 | 4.6 nM | 77 nM | CN(CC[C@@H]1CC[C@@H](CNC(=O)c2cc3ccccc3[nH]2)C1)[C@@H]1Cc2cccc3[nH]c(=O)n(c23)C1
